Measured values from patent US20230183193A1, “4-DIFLUOROMETHYL BENZOYL AMIDES WITH HERBICIDAL ACTION” (BAYER CROPSCIENCE AKTIENGESELLSCHAFT, priority 2017, published 2023).

Experiments:
[1] = test system: Abutilon theophrasti; test: Pre-emergence herbicidal action, ABUTH; assay type: in vivo; details: for Herbicidal efficacy against ABUTH: Table K; for herbicidal activity ABUTH: scored visually after 3 weeks vs untreated controls
In short: (§1)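 Weed seeds were laid out in sandy loam and covered with soil, then the soil surface was treated with an aqueous suspension or emulsion of the formulated compound containing 0.2% wetting agent. Pots stayed in the greenhouse for 3 weeks before damage was rated visually against untreated plants.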

[2] = test system: Alopecurus myosuroides; test: Pre-emergence herbicidal action, ALOMY; assay type: in vivo
In short: as §1

[3] = test system: Amaranthus retroflexus; test: Pre-emergence herbicidal action, AMARE; assay type: in vivo; details: dosage 320 g/ha, scored visually after 3 weeks vs untreated controls
In short: as §1

[4] = test system: Avena fatua; test: Pre-emergence herbicidal action, AVEFA; assay type: in vivo; details: for herbicidal activity AVEFA: dosage 320 g/ha, scored visually after 3 weeks vs untreated controls
In short: as §1

[5] = test system: Cyperus serotinus; test: Pre-emergence herbicidal action, CYPES; assay type: in vivo
In short: as §1

[6] = test system: Matricaria inodora; test: Pre-emergence herbicidal action, MATIN; assay type: in vivo; details: for Herbicidal efficacy against MATIN: Table K; for herbicidal activity MATIN: scored visually after 3 weeks vs untreated controls
In short: as §1

[7] = test system: Polygonum convolvulus; test: Pre-emergence herbicidal action, POLCO; assay type: in vivo; details: Table K
Excerpt: 1. Pre-Emergence Herbicidal Action Against Harmful Plants Seeds of monocotyledonous and dicotyledonous weed plants and crop plants are laid out in sandy loam soil in wood-fiber pots and covered with soil. The compounds of the invention, formulated in the form of wettable powders (WP) or as emulsion concentrates (EC), are then applied to the surface of the covering soil in the form of an aqueous suspension or emulsion at a water application rate equating to […], with addition of 0.2% wetting agent. After the treatment, the pots are placed in a greenhouse and kept under good growth conditions for the trial plants. The damage to the test plants is scored visually after a test period of 3 weeks by comparison with untreated controls (herbicidal activity in percent (%): 100% activity=the plants have died, 0% activity=like control plants).
For comparison, the herbicidal activity of numerous compounds according to the invention was tested with the structurally closest compounds known from the documents WO 2011/035874, WO 2012/028579 and WO 2012/126932, by the pre- and post-emergence method.

[8] = test system: Setaria viridis; test: Pre-emergence herbicidal action, SETVI; assay type: in vivo; details: for herbicidal activity SETVI: dosage 320 g/ha, scored visually after 3 weeks vs untreated controls
In short: as §1

[9] = test system: Stellaria media; test: Pre-emergence herbicidal action, STEME; assay type: in vivo; details: dosage 320 g/ha, scored visually after 3 weeks vs untreated controls
In short: as §1

[10] = test system: Viola tricolor; test: Pre-emergence herbicidal action, VIOTR; assay type: in vivo; details: for Herbicidal efficacy against VIOTR: Table K; for herbicidal activity VIOTR: scored visually after 3 weeks vs untreated controls
In short: as §1

[11] = test system: Abutilon theophrasti; test: Post-emergence herbicidal action, ABUTH; assay type: in vivo; details: 80 g/ha, Table D
In short: (§2)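 Herbicidal effect is rated visually as percent versus untreated plants (100% = dead, 0% = like control) about 3 weeks after spraying. Plants were sown in sandy loam in the greenhouse and sprayed on green parts at the one-leaf stage, 2 to 3 weeks post-sowing.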

[12] = test system: Alopecurus myosuroides; test: Post-emergence herbicidal action, ALOMY; assay type: in vivo; details: for herbicidal activity ALOMY: 80 g/ha, Table C
In short: as §2

[13] = test system: Amaranthus retroflexus; test: Post-emergence herbicidal action, AMARE; assay type: in vivo; details: 80 g/ha, Table D
In short: as §2

[14] = test system: Avena fatua; test: Post-emergence herbicidal action, AVEFA; assay type: in vivo
In short: as §2

[15] = test system: Pharbitis purpureum; test: Post-emergence herbicidal action, PHBPU; assay type: in vivo; details: 80 g/ha, Table D
In short: as §2

[16] = test system: Setaria viridis; test: Post-emergence herbicidal action, SETVI; assay type: in vivo; details: for herbicidal activity SETVI: 80 g/ha, Table C
In short: as §2

[17] = test system: Stellaria media; test: Post-emergence herbicidal action, STEME; assay type: in vivo; details: for Herbicidal activity STEME: 80 g/ha, Table D
In short: as §2

[18] = test system: Viola tricolor; test: Post-emergence herbicidal action, VIOTR; assay type: in vivo; details: for herbicidal activity VIOTR: 80 g/ha, Table D
In short: as §2

[19] = test system: ECHCG; test: Post-emergence herbicidal action, ECHCG; assay type: in vivo; details: 80 g/ha, Table C
In short: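 Weed and crop plants grown in sandy loam in the greenhouse, treated at the one-leaf stage 2–3 weeks after sowing. Damage scored visually after about 3 weeks vs untreated controls (0% = control, 100% = dead).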

[20] = test system: ECHCG; test: Pre-emergence herbicidal action, ECHCG; assay type: in vivo, Echinochloa crus-galli
[21] = dosage 320 g/ha, scored visually after 3 weeks vs untreated controls

Cn1nnnc1NC(=O)c1ccc(C(F)F)c([S+](C)[O-])c1Cl (centres unmarked) [Example 1-50]
Herbicidal efficacy against ABUTH ([1]; dosage 20 g/ha): 100 | Herbicidal efficacy against ABUTH ([1]; dosage 80 g/ha): 100 | Herbicidal efficacy against ABUTH ([1]; dosage 320 g/ha): 100 | herbicidal activity ABUTH ([1]; dosage 320 g/ha): 100% | Herbicidal efficacy against ALOMY ([2]; 20 g/ha): 90 | Herbicidal efficacy against ALOMY ([2]; 80 g/ha): 100 | Herbicidal efficacy against ALOMY ([2]; 320 g/ha): 100 | herbicidal activity ALOMY [2, 21]: 100% | herbicidal activity AMARE [3]: 100% | Herbicidal efficacy against AVEFA ([4]; 80 g/ha): 90 | Herbicidal efficacy against AVEFA ([4]; 320 g/ha): 100 | herbicidal activity AVEFA [4]: 100% | Herbicidal efficacy against CYPES ([5]; 20 g/ha): 70 | Herbicidal efficacy against CYPES ([5]; 80 g/ha): 100 | Herbicidal efficacy against CYPES ([5]; 320 g/ha): 100 | herbicidal activity CYPES [5, 21]: 100% | Herbicidal efficacy against MATIN ([6]; dosage 20 g/ha): 90 | Herbicidal efficacy against MATIN ([6]; dosage 80 g/ha): 100 | Herbicidal efficacy against MATIN ([6]; dosage 320 g/ha): 100 | herbicidal activity MATIN ([6]; dosage 320 g/ha): 100% | Herbicidal efficacy against POLCO ([7]; dosage 80 g/ha): 80 | Herbicidal efficacy against POLCO ([7]; dosage 320 g/ha): 90 | Herbicidal efficacy against SETVI ([8]; 20 g/ha): 100 | Herbicidal efficacy against SETVI ([8]; 80 g/ha): 100 | Herbicidal efficacy against SETVI ([8]; 320 g/ha): 100 | herbicidal activity SETVI [8]: 100% | Herbicidal activity STEME [9]: 90% | Herbicidal efficacy against VIOTR ([10]; dosage 20 g/ha): 100 | Herbicidal efficacy against VIOTR ([10]; dosage 80 g/ha): 100 | Herbicidal efficacy against VIOTR ([10]; dosage 320 g/ha): 100 | herbicidal activity VIOTR ([10]; dosage 320 g/ha): 100% | herbicidal activity ABUTH [11]: 100% | herbicidal activity ALOMY [12]: 100% | herbicidal activity AMARE [13]: 100% | herbicidal activity AVEFA ([14]; 80 g/ha, Table C): 100% | Herbicidal activity PHBPU [15]: 100% | herbicidal activity SETVI [16]: 100% | Herbicidal activity STEME [17]: 100% | herbicidal activity VIOTR [18]: 100% | Herbicidal activity ECHCG [19]: 100% | Herbicidal efficacy against ECHCG ([20]; 20 g/ha): 90 | Herbicidal efficacy against ECHCG ([20]; 80 g/ha): 100 | Herbicidal efficacy against ECHCG ([20]; 320 g/ha): 100

CSc1c(C(F)F)ccc(C(=O)Nc2ncnn2C)c1C [Example 4-1, 4-(difluoromethyl)-2-methyl-3-(methylsulfanyl)-N-(1-methyl-1H-1,2,4-triazol-5-yl)benzamide]
Herbicidal efficacy against ABUTH ([1]; dosage 80 g/ha): 90 | Herbicidal efficacy against ABUTH ([1]; dosage 320 g/ha): 100 | herbicidal activity ABUTH ([1]; dosage 320 g/ha): 100% | Herbicidal efficacy against ALOMY ([2]; 320 g/ha): 40 | herbicidal activity AMARE [3]: 100% | Herbicidal efficacy against AVEFA ([4]; 80 g/ha): 30 | Herbicidal efficacy against AVEFA ([4]; 320 g/ha): 80 | herbicidal activity AVEFA [4]: 80% | Herbicidal efficacy against CYPES ([5]; 80 g/ha): 30 | Herbicidal efficacy against CYPES ([5]; 320 g/ha): 50 | Herbicidal efficacy against MATIN ([6]; dosage 80 g/ha): 80 | Herbicidal efficacy against MATIN ([6]; dosage 320 g/ha): 90 | herbicidal activity MATIN ([6]; dosage 320 g/ha): 90% | Herbicidal efficacy against POLCO ([7]; dosage 80 g/ha): 30 | Herbicidal efficacy against POLCO ([7]; dosage 320 g/ha): 30 | Herbicidal efficacy against SETVI ([8]; 80 g/ha): 80 | Herbicidal efficacy against SETVI ([8]; 320 g/ha): 100 | herbicidal activity SETVI [8]: 100% | Herbicidal activity STEME [9]: 90% | Herbicidal efficacy against VIOTR ([10]; dosage 80 g/ha): 100 | Herbicidal efficacy against VIOTR ([10]; dosage 320 g/ha): 100 | herbicidal activity VIOTR ([10]; dosage 320 g/ha): 100% | herbicidal activity ABUTH [11]: 100% | Herbicidal efficacy against ALOMY ([12]; 20 g/ha): 70 | herbicidal activity ALOMY [12]: 80% | herbicidal activity AMARE [13]: 100% | Herbicidal efficacy against AVEFA ([14]; 20 g/ha): 20 | Herbicidal activity PHBPU [15]: 100% | Herbicidal efficacy against SETVI ([16]; 20 g/ha): 60 | herbicidal activity SETVI [16]: 100% | Herbicidal efficacy against STEME ([17]; 20 g/ha): 80 | Herbicidal activity STEME [17]: 100% | Herbicidal efficacy against VIOTR ([18]; 20 g/ha): 100 | herbicidal activity VIOTR [18]: 100% | Herbicidal activity ECHCG [19]: 90% | Herbicidal efficacy against ECHCG ([20]; 80 g/ha): 70 | Herbicidal efficacy against ECHCG ([20]; 320 g/ha): 100
